“Also recorded” adds a separate entry of the source.
How the values were obtained:
[1] = test system: HIV-1 NL4-3; assay: Single round HIV infectivity in HeLa37 cells; type: cell-based
[2] = test system: HeLa37 cells; assay: Cell viability; type: cell-based; settings: concentrations as high as 100 µg/mL

| Structure (SMILES) | anti-HIV activity (in words) [1] | cytotoxicity (in words) [2] |
| --- | --- | --- |
| CC(=O)c1c(O)c2c(c(C(C)=O)c1O)OC(C)(C)CC2 [Compound 6, 6,8-diacetyl-2,2-dimethylchroman-5,7-diol] | least active |  |
| CC1(C)CCc2c(O)c(C(=O)CC(=O)c3ccccc3)c(O)c(C=O)c2O1 [Compound 12, 6-(1,3-Dioxo-3-phenylpropyl)-2,2-dimethyl-8-formylchroman-5,7-diol] | good activity | highest cytotoxicity; also recorded: significant cytotoxicity at the higher concentrations tested |

Source: paper PMC3725577 (Bioorganic & medicinal chemistry letters, 2011)
